Source: the NIST ThermoML archive (doi:10.1021/acs.jced.7b00106)

Details: Hot wire method

FC(F)(F)/C=C/Cl [(E)-1-chloro-3,3,3-trifluoroprop-1-ene]
Details	thermal conductivity [W/m/K]
334.63 K, 179 kPa, Gas	0.01343
334.73 K, 328 kPa, Gas	0.01333
334.82 K, 112 kPa, Gas	0.01357
334.91 K, 97 kPa, Gas	0.01369
334.92 K, 253 kPa, Gas	0.0134
335.16 K, 178 kPa, Gas	0.01354
335.37 K, 112 kPa, Gas	0.01364
335.44 K, 97 kPa, Gas	0.01368
335.71 K, 176 kPa, Gas	0.01352
336 K, 98 kPa, Gas	0.01372
336.29 K, 176 kPa, Gas	0.01354
341.04 K, 7818 kPa, Liquid	0.07607
341.05 K, 502 kPa, Liquid	0.07132
341.06 K, 4000 kPa, Liquid	0.07359
341.11 K, 4008 kPa, Liquid	0.07339
341.11 K, 7812 kPa, Liquid	0.07571
341.12 K, 503 kPa, Liquid	0.07103
341.12 K, 34293 kPa, Liquid	0.08893
341.19 K, 34283 kPa, Liquid	0.08864
341.28 K, 19052 kPa, Liquid	0.08179
341.29 K, 26074 kPa, Liquid	0.08503
341.35 K, 19044 kPa, Liquid	0.08181
341.36 K, 12813 kPa, Liquid	0.07865
341.37 K, 26069 kPa, Liquid	0.08479
341.4 K, 7815 kPa, Liquid	0.07567
341.42 K, 3996 kPa, Liquid	0.0734
341.44 K, 510 kPa, Liquid	0.07095
341.44 K, 12800 kPa, Liquid	0.07849
341.47 K, 114 kPa, Gas	0.01391
341.48 K, 7806 kPa, Liquid	0.07567
341.5 K, 113 kPa, Gas	0.01391
341.5 K, 182 kPa, Gas	0.01442
341.5 K, 4008 kPa, Liquid	0.07332
341.53 K, 498 kPa, Liquid	0.07081
341.53 K, 53967 kPa, Liquid	0.09634
341.54 K, 65483 kPa, Liquid	0.1004
341.56 K, 117 kPa, Gas	0.01424
341.57 K, 34287 kPa, Liquid	0.08857
341.61 K, 65470 kPa, Liquid	0.1001
341.62 K, 53976 kPa, Liquid	0.09608
341.73 K, 464 kPa, Gas	0.01417
341.74 K, 113 kPa, Gas	0.01377
341.74 K, 256 kPa, Gas	0.01435
341.76 K, 26067 kPa, Liquid	0.08459
341.77 K, 19040 kPa, Liquid	0.08164
341.78 K, 181 kPa, Gas	0.01434
341.79 K, 114 kPa, Gas	0.0139
341.8 K, 177 kPa, Gas	0.01425
341.82 K, 7816 kPa, Liquid	0.0756
341.84 K, 117 kPa, Gas	0.01379
341.84 K, 465 kPa, Gas	0.01387
341.84 K, 4002 kPa, Liquid	0.07296
341.87 K, 26056 kPa, Liquid	0.08482
341.88 K, 116 kPa, Gas	0.01443
341.88 K, 490 kPa, Liquid	0.07091
341.88 K, 12799 kPa, Liquid	0.07857
341.88 K, 19048 kPa, Liquid	0.08151
341.91 K, 380 kPa, Gas	0.01419
341.92 K, 7805 kPa, Liquid	0.07534
341.96 K, 4010 kPa, Liquid	0.07316
341.98 K, 253 kPa, Gas	0.01421
341.99 K, 264 kPa, Gas	0.01423
341.99 K, 497 kPa, Liquid	0.07068
342 K, 113 kPa, Gas	0.01367
342.01 K, 464 kPa, Gas	0.0141
342.01 K, 65484 kPa, Liquid	0.1003
342.02 K, 53960 kPa, Liquid	0.09643
342.05 K, 176 kPa, Gas	0.01407
342.09 K, 117 kPa, Gas	0.01369
342.1 K, 180 kPa, Gas	0.01435
342.12 K, 465 kPa, Gas	0.01384
342.12 K, 34281 kPa, Liquid	0.08848
342.12 K, 65469 kPa, Liquid	0.09982
342.13 K, 113 kPa, Gas	0.01416
342.15 K, 367 kPa, Gas	0.01454
342.2 K, 116 kPa, Gas	0.01425
342.2 K, 377 kPa, Gas	0.01421
342.21 K, 43755 kPa, Liquid	0.09113
342.24 K, 251 kPa, Gas	0.01415
342.24 K, 34289 kPa, Liquid	0.08779
342.26 K, 113 kPa, Gas	0.01361
342.29 K, 7805 kPa, Liquid	0.07547
342.3 K, 262 kPa, Gas	0.01427
342.32 K, 4001 kPa, Liquid	0.07309
342.32 K, 26065 kPa, Liquid	0.08477
342.33 K, 176 kPa, Gas	0.01391
342.34 K, 464 kPa, Gas	0.0141
342.34 K, 19039 kPa, Liquid	0.08156
342.35 K, 118 kPa, Gas	0.01366
342.37 K, 497 kPa, Liquid	0.07069
342.4 K, 364 kPa, Gas	0.01446
342.43 K, 179 kPa, Gas	0.01433
342.43 K, 7788 kPa, Liquid	0.07522
342.45 K, 465 kPa, Gas	0.01403
342.47 K, 113 kPa, Gas	0.01424
342.47 K, 12801 kPa, Liquid	0.07827
342.48 K, 4008 kPa, Liquid	0.07289
342.49 K, 19031 kPa, Liquid	0.08119
342.51 K, 249 kPa, Gas	0.01404
342.52 K, 491 kPa, Liquid	0.07043
342.54 K, 114 kPa, Gas	0.0136
342.55 K, 117 kPa, Gas	0.01427
342.55 K, 375 kPa, Gas	0.01415
342.57 K, 65460 kPa, Liquid	0.1005
342.59 K, 175 kPa, Gas	0.01391
342.6 K, 53948 kPa, Liquid	0.09634
342.61 K, 12792 kPa, Liquid	0.07793
342.64 K, 119 kPa, Gas	0.01361
342.66 K, 260 kPa, Gas	0.01427
342.67 K, 362 kPa, Gas	0.01441
342.68 K, 43762 kPa, Liquid	0.09267
342.7 K, 464 kPa, Gas	0.01406
342.72 K, 65463 kPa, Liquid	0.09997
342.73 K, 34274 kPa, Liquid	0.08854
342.75 K, 53929 kPa, Liquid	0.09616
342.8 K, 178 kPa, Gas	0.01445
342.8 K, 247 kPa, Gas	0.01402
342.8 K, 465 kPa, Gas	0.01412
342.8 K, 7784 kPa, Liquid	0.07528
342.84 K, 43753 kPa, Liquid	0.09232
342.85 K, 113 kPa, Gas	0.01425
342.85 K, 114 kPa, Gas	0.01353
342.86 K, 4005 kPa, Liquid	0.07287
342.89 K, 173 kPa, Gas	0.01384
342.9 K, 34279 kPa, Liquid	0.08837
342.91 K, 372 kPa, Gas	0.01419
342.92 K, 488 kPa, Liquid	0.07046
342.93 K, 359 kPa, Gas	0.01446
342.94 K, 116 kPa, Gas	0.01437
342.95 K, 121 kPa, Gas	0.01352
343.03 K, 258 kPa, Gas	0.01427
343.07 K, 464 kPa, Gas	0.01408
343.08 K, 246 kPa, Gas	0.01404
343.12 K, 496 kPa, Liquid	0.06933
343.14 K, 26056 kPa, Liquid	0.08389
343.17 K, 65460 kPa, Liquid	0.09977
343.19 K, 19024 kPa, Liquid	0.08036
343.2 K, 178 kPa, Gas	0.01442
343.22 K, 357 kPa, Gas	0.01443
343.23 K, 53929 kPa, Liquid	0.09614
343.27 K, 113 kPa, Gas	0.01431
343.3 K, 370 kPa, Gas	0.01421
343.34 K, 43755 kPa, Liquid	0.09204
343.35 K, 117 kPa, Gas	0.01424
343.35 K, 12789 kPa, Liquid	0.07705
